Patent publication US20170190671A1, “BIS(ARYL)CATECHOL DERIVATIVES AS HERBICIDES” (E I DU PONT DE NEMOURS AND COMPANY, priority 2014, published 2017)

Assays:
Test in all cases: Test C postemergence
Assay type in all cases: in vivo
[1] = tested on: chickweed (common chickweed, Stellaria media); conditions: scale 0 to 100
[2] = tested on: winter wheat (Triticum aestivum); conditions: scale 0 to 100
[3] = tested on: barnyardgrass (Echinochloa crus-galli)
[4] = tested on: giant foxtail (Setaria faberii); conditions: scale 0 to 100
[5] = tested on: oilseed rape (Brassica napus); conditions: scale 0 to 100
[6] = tested on: lambsquarters (Chenopodium album); conditions: scale 0 to 100
[7] = tested on: large (Lg) crabgrass (Digitaria sanguinalis); conditions: scale 0 to 100
[8] = tested on: blackgrass (Alopecurus myosuroides); conditions: scale 0 to 100
[9] = tested on: morningglory (Ipomoea coccinea); conditions: scale 0 to 100
corn (Zea mays) = conditions: scale 0 to 100
[10] = tested on: johnsongrass (Sorghum halepense); conditions: scale 0 to 100
[11] = tested on: Italian ryegrass (Lolium multiflorum); conditions: scale 0 to 100
[12] = tested on: galium (catchweed bedstraw, Galium aparine); conditions: scale 0 to 100
[13] = tested on: ragweed (common ragweed, Ambrosia elatior); conditions: scale 0 to 100
[14] = tested on: yellow nutsedge (Cyperus esculentus); conditions: scale 0 to 100
[15] = tested on: velvetleaf (Abutilon theophrasti); conditions: scale 0 to 100
wild oat (Avena fatua) = conditions: scale 0 to 100
[16] = tested on: waterhemp (common waterhemp, Amaranthus rudis); conditions: scale 0 to 100
soybean (Glycine max) = conditions: scale 0 to 100

SMILES: Fc1ccc(F)c(Oc2ncc(C(F)(F)F)cn2)c1Oc1ncc(Cl)cn1 [Compound 25]
- Plant response rating, Chickweed ([1]; 8 g ai/ha, postemergence): 0
- Plant response rating, Chickweed ([1]; Postemergence, 16 g ai/ha): 20
- Plant response rating, Chickweed ([1]; Postemergence, 31 g ai/ha): 50
- Plant response rating, Chickweed ([1]; Postemergence, 62 g ai/ha): 60
- Plant response rating, Wheat ([2]; 8 g ai/ha, postemergence): 0
- Plant response rating, Wheat ([2]; Postemergence, 31 g ai/ha): 0
- Plant response rating, Wheat ([2]; Postemergence, 62 g ai/ha): 0
- Plant response rating, Barnyardgrass ([3]; 8 g ai/ha, postemergence, scale 0 to 100 (0 no effect, 100 complete control)): 5
- Plant response rating, Barnyardgrass ([3]; Postemergence, 16 g ai/ha, scale 0 to 100): 5
- Plant response rating, Barnyardgrass ([3]; Postemergence, 31 g ai/ha, scale 0 to 100): 5
- Plant response rating, Barnyardgrass ([3]; Postemergence, 62 g ai/ha, scale 0 to 100): 10
- Plant response rating, Foxtail, Giant ([4]; 8 g ai/ha, postemergence): 0
- Plant response rating, Foxtail, Giant ([4]; Postemergence, 16 g ai/ha): 0
- Plant response rating, Foxtail, Giant ([4]; Postemergence, 31 g ai/ha): 0
- Plant response rating, Foxtail, Giant ([4]; Postemergence, 62 g ai/ha): 5
- Plant response rating, Oilseed Rape ([5]; 8 g ai/ha, postemergence): 30
- Plant response rating, Oilseed Rape ([5]; Postemergence, 31 g ai/ha): 50
- Plant response rating, Oilseed Rape ([5]; Postemergence, 62 g ai/ha): 45
- Plant response rating, Lambsquarters ([6]; 8 g ai/ha, postemergence): 60
- Plant response rating, Lambsquarters ([6]; Postemergence, 16 g ai/ha): 80
- Plant response rating, Lambsquarters ([6]; Postemergence, 31 g ai/ha): 80
- Plant response rating, Lambsquarters ([6]; Postemergence, 62 g ai/ha): 75
- Plant response rating, Crabgrass, Large ([7]; 8 g ai/ha, postemergence): 0
- Plant response rating, Crabgrass, Large ([7]; Postemergence, 16 g ai/ha): 0
- Plant response rating, Crabgrass, Large ([7]; Postemergence, 31 g ai/ha): 0
- Plant response rating, Crabgrass, Large ([7]; Postemergence, 62 g ai/ha): 5
- Plant response rating, Blackgrass ([8]; 8 g ai/ha, postemergence): 0
- Plant response rating, Blackgrass ([8]; Postemergence, 16 g ai/ha): 0
- Plant response rating, Blackgrass ([8]; Postemergence, 31 g ai/ha): 5
- Plant response rating, Blackgrass ([8]; Postemergence, 62 g ai/ha): 5
- Plant response rating, Morningglory ([9]; 8 g ai/ha, postemergence): 20
- Plant response rating, Morningglory ([9]; Postemergence, 31 g ai/ha): 10
- Plant response rating, Morningglory ([9]; Postemergence, 62 g ai/ha): 15
- Plant response rating, Corn (corn (Zea mays); 8 g ai/ha, postemergence): 5
- Plant response rating, Corn (corn (Zea mays); Postemergence, 16 g ai/ha): 5
- Plant response rating, Corn (corn (Zea mays); Postemergence, 31 g ai/ha): 5
- Plant response rating, Corn (corn (Zea mays); Postemergence, 62 g ai/ha): 5
- Plant response rating, Johnsongrass ([10]; 8 g ai/ha, postemergence): 0
- Plant response rating, Johnsongrass ([10]; Postemergence, 16 g ai/ha): 5
- Plant response rating, Johnsongrass ([10]; Postemergence, 31 g ai/ha): 5
- Plant response rating, Johnsongrass ([10]; Postemergence, 62 g ai/ha): 5
- Plant response rating, Ryegrass, Italian ([11]; 8 g ai/ha, postemergence): 0
- Plant response rating, Ryegrass, Italian ([11]; Postemergence, 31 g ai/ha): 5
- Plant response rating, Ryegrass, Italian ([11]; Postemergence, 62 g ai/ha): 5
- Plant response rating, Galium ([12]; 8 g ai/ha, postemergence): 50
- Plant response rating, Galium ([12]; Postemergence, 16 g ai/ha): 55
- Plant response rating, Galium ([12]; Postemergence, 31 g ai/ha): 80
- Plant response rating, Galium ([12]; Postemergence, 62 g ai/ha): 80
- Plant response rating, Ragweed ([13]; 8 g ai/ha, postemergence): 0
- Plant response rating, Ragweed ([13]; Postemergence, 31 g ai/ha): 10
- Plant response rating, Ragweed ([13]; Postemergence, 62 g ai/ha): 25
- Plant response rating, Nutsedge, Yellow ([14]; 8 g ai/ha, postemergence): 0
- Plant response rating, Nutsedge, Yellow ([14]; Postemergence, 31 g ai/ha): 5
- Plant response rating, Nutsedge, Yellow ([14]; Postemergence, 62 g ai/ha): 10
- Plant response rating, Velvetleaf ([15]; 8 g ai/ha, postemergence): 30
- Plant response rating, Velvetleaf ([15]; Postemergence, 31 g ai/ha): 60
- Plant response rating, Velvetleaf ([15]; Postemergence, 62 g ai/ha): 30
- Plant response rating, Oat, Wild (wild oat (Avena fatua); 8 g ai/ha, postemergence): 5
- Plant response rating, Oat, Wild (wild oat (Avena fatua); Postemergence, 31 g ai/ha): 10
- Plant response rating, Oat, Wild (wild oat (Avena fatua); Postemergence, 62 g ai/ha): 15
- Plant response rating, Waterhemp ([16]; 8 g ai/ha, postemergence): 90
- Plant response rating, Waterhemp ([16]; Postemergence, 31 g ai/ha): 50
- Plant response rating, Waterhemp ([16]; Postemergence, 62 g ai/ha): 75
- Plant response rating, Soybean (soybean (Glycine max); 8 g ai/ha, postemergence): 30
- Plant response rating, Soybean (soybean (Glycine max); Postemergence, 31 g ai/ha): 50
- Plant response rating, Soybean (soybean (Glycine max); Postemergence, 62 g ai/ha): 45
